Test results published in patent US20250221410A1, “SUBSTITUTED 2-C-AZINES AND SALTS THEREOF, AND USE THEREOF AS HERBICIDAL ACTIVE SUBSTANCES” (BAYER AKTIENGESELLSCHAFT, priority 2022, published 2025).

Tests used:
Assay type in all cases: in vivo
[1] = tested on: AMARE: Amaranthus retroflexus; experiment: Pre-emergence herbicide efficacy at 80 g/ha, AMARE; settings: scored visually after about 3 weeks
From the text: Seeds of monocotyledonous and dicotyledonous weed plants and crop plants were placed in plastic or organic planting pots and covered with soil. The compounds of the invention, formulated in the form of wettable powders (WP) or as emulsion concentrates (EC), were then applied to the surface of the covering soil as aqueous suspension or emulsion with addition of 0.5% additive at a water application rate equivalent to 600 l/ha. After the treatment, the pots were placed in a greenhouse and kept under good growth conditions for the test plants. After about 3 weeks, the efficacy of the preparations was scored visually in comparison with untreated controls as percentages. For example, 100% activity=the plants have died, 0% activity=like control plants. Tables D1 to D12 below show the effects of selected compounds of the general formula (I) according to Table 1 on various harmful plants and an application rate corresponding to 80 g/ha, which were obtained by the experimental procedure mentioned above.

[2] = tested on: AMARE: Amaranthus retroflexus; experiment: Post-emergence herbicidal efficacy at 80 g/ha, AMARE; settings: visual rating about 3 weeks after treatment vs untreated controls
Protocol: Seeds of monocotyledonous and dicotyledonous weeds and crop plants were placed in sandy loam in plastic or organic planting pots, covered with soil and cultivated in a greenhouse under controlled growth conditions. 2 to 3 weeks after sowing, the test plants were treated at the one-leaf stage. The compounds of the invention, formulated in the form of wettable powders (WP) or as emulsion concentrates (EC), were then sprayed onto the green parts of the plants as aqueous suspension or emulsion with addition of 0.5% additive at a water application rate of 600 l/ha (converted). After the test plants had been kept in the greenhouse under optimum growth conditions for about 3 weeks, the activity of the preparations was rated visually in comparison to untreated controls. For example, 100% activity=the plants have died, 0% activity=like control plants. Tables B1 to B10 below show the effects of selected compounds of the general formula (I) according to Table 1 on various harmful plants and an application rate corresponding to 80 g/ha, which were obtained by the experimental procedure mentioned above.

SETVI: Setaria viridis [3] = experiment: Post-emergence herbicidal efficacy at 1280 g/ha, SETVI; settings: visual rating about 3 weeks after treatment vs untreated controls
Protocol: (§1) Seeds of mono- and dicotyledonous weed plants were placed in plastic pots in sandy loam soil (doubly sown with in each case one species of mono- or dicotyledonous weed plants per pot), covered with soil and cultivated in a greenhouse under controlled growth conditions. 2 to 3 weeks after sowing, the test plants were treated at the one-leaf stage. The compounds of the invention, formulated in the form of wettable powders (WP) or as emulsion concentrates (EC), were applied to the green parts of the plants as aqueous suspension or emulsion with addition of 0.5% additive at a water application rate equivalent to 600 litres per hectare. After the test plants had been kept in the greenhouse under optimum growth conditions for about 3 weeks, the activity of the preparations was rated visually in comparison to untreated controls. For example, 100% activity=the plants have died, 0% activity=like control plants. Tables A1 to A12 below show the effects of selected compounds of the general formula (I) according to Table 1 on various harmful plants and at an application rate corresponding to 1280 g/ha, which were obtained by the trial procedure specified above.

POAAN: Poa annua [4] = experiment: Post-emergence herbicidal efficacy at 1280 g/ha, POAAN; settings: visual rating about 3 weeks after treatment vs untreated controls
Protocol: as §1

[5] = tested on: DIGSA: Digitaria sanguinalis; experiment: Pre-emergence herbicide efficacy at 1280 g/ha, DIGSA; settings: visual scoring after about 3 weeks vs untreated controls
From the text: (§2) Seeds of mono- and dicotyledonous weed plants were placed in plastic pots in sandy loam soil (doubly sown with one species each of mono- or dicotyledonous weed plants per pot) and covered with soil. The compounds of the invention, formulated in the form of wettable powders (WP) or as emulsion concentrates (EC), were then applied to the surface of the covering soil as aqueous suspension or emulsion with addition of 0.5% additive at a water application rate of 600 litres per hectare (converted). After the treatment, the pots were placed in a greenhouse and kept under good growth conditions for the test plants. After about 3 weeks, the efficacy of the preparations was scored visually in comparison with untreated controls as percentages. For example, 100% activity=the plants have died, 0% activity=like control plants. Tables C1 to C12 below show the effects of selected compounds of the general formula (I) according to Table 1 on various harmful plants and at an application rate corresponding to 1280 g/ha, which were obtained by the trial procedure specified above.

STEME: Stellaria media [6] = experiment: Post-emergence herbicidal efficacy at 1280 g/ha, STEME; settings: visual rating about 3 weeks after treatment vs untreated controls
Protocol: as §1

[7] = tested on: ECHCG: Echinochloa crus-galli; experiment: Post-emergence herbicidal efficacy at 1280 g/ha, ECHCG; settings: rated visually after about 3 weeks vs untreated controls, 100% = plants have died, 0% = like control plants
Protocol: as §1

[8] = tested on: AMARE: Amaranthus retroflexus; experiment: Pre-emergence herbicide efficacy at 1280 g/ha, AMARE; settings: visual scoring after about 3 weeks vs untreated controls
From the text: as §2

POAAN: Poa annua [9] = experiment: Pre-emergence herbicide efficacy at 1280 g/ha, POAAN; settings: visual scoring after about 3 weeks vs untreated controls
From the text: as §2

[10] = tested on: ABUTH: Abutilon theophrasti; experiment: Post-emergence herbicidal efficacy at 1280 g/ha, ABUTH; settings: rated visually after about 3 weeks vs untreated controls, 100% = plants have died, 0% = like control plants
Protocol: as §1

[11] = tested on: AMARE: Amaranthus retroflexus; experiment: Post-emergence herbicidal efficacy at 1280 g/ha, AMARE; settings: rated visually after about 3 weeks vs untreated controls, 100% = plants have died, 0% = like control plants
Protocol: as §1

SETVI: Setaria viridis [12] = experiment: Pre-emergence herbicide efficacy at 1280 g/ha, SETVI; settings: visual scoring vs untreated controls
From the text: as §2

VERPE: Veronica persica [13] = experiment: Post-emergence herbicidal efficacy at 1280 g/ha, VERPE; settings: visual rating about 3 weeks after treatment vs untreated controls
Protocol: as §1

[14] = tested on: ECHCG: Echinochloa crus-galli; experiment: Pre-emergence herbicide efficacy at 1280 g/ha, ECHCG; settings: visual scoring after about 3 weeks vs untreated controls
From the text: as §2

KCHSC: Kochia scoparia [15] = experiment: Post-emergence herbicidal efficacy at 1280 g/ha, KCHSC; settings: visual rating about 3 weeks after treatment vs untreated controls
Protocol: as §1

STEME: Stellaria media [16] = experiment: Pre-emergence herbicide efficacy at 1280 g/ha, STEME; settings: visual scoring vs untreated controls
From the text: as §2

VERPE: Veronica persica [17] = experiment: Pre-emergence herbicide efficacy at 1280 g/ha, VERPE; settings: visual scoring vs untreated controls
From the text: as §2

KCHSC: Kochia scoparia [18] = experiment: Pre-emergence herbicide efficacy at 1280 g/ha, KCHSC; settings: visual scoring after about 3 weeks vs untreated controls
From the text: as §2

[19] = tested on: ABUTH: Abutilon theophrasti; experiment: Pre-emergence herbicide efficacy at 1280 g/ha, ABUTH; settings: visual scoring after about 3 weeks vs untreated controls
From the text: as §2

| SMILES | Pre-emergence efficacy against AMARE in % [1] | Post-emergence efficacy against AMARE [2] | Post-emergence efficacy against SETVI (SETVI: Setaria viridis [3]) | Post-emergence efficacy against POAAN (POAAN: Poa annua [4]) | Pre-emergence efficacy against DIGSA [5] | Post-emergence efficacy against STEME (STEME: Stellaria media [6]) | Post-emergence efficacy at 1280 g/ha against ECHCG in % [7] | Pre-emergence efficacy against AMARE [8] | Pre-emergence efficacy against POAAN (POAAN: Poa annua [9]) | Post-emergence efficacy at 1280 g/ha against ABUTH in % [10] | Post-emergence efficacy at 1280 g/ha against AMARE in % [11] | Pre-emergence efficacy against SETVI in % (SETVI: Setaria viridis [12]) | Post-emergence efficacy against VERPE (VERPE: Veronica persica [13]) | Pre-emergence efficacy against ECHCG [14] | Post-emergence efficacy against KCHSC (KCHSC: Kochia scoparia [15]) | Pre-emergence efficacy against STEME in % (STEME: Stellaria media [16]) | Pre-emergence efficacy against VERPE in % (VERPE: Veronica persica [17]) | Pre-emergence efficacy against KCHSC (KCHSC: Kochia scoparia [18]) | Pre-emergence efficacy against ABUTH [19] |
| --- | --- | --- | --- | --- | --- | --- | --- | --- | --- | --- | --- | --- | --- | --- | --- | --- | --- | --- | --- |
| O=S(=O)(CCC(F)(F)F)Oc1c(F)cccc1Cc1ncc(F)cn1 [Example 1-17] | 80% | 90% | – | – | – | – | – | – | – | – | – | – | – | – | – | – | – | – | – |
| O=S(=O)(CCC(F)(F)F)Oc1c(Cl)cccc1Cc1ncc(F)cn1 [Example 1-21] | 90% | 90% | – | – | – | – | – | – | – | – | – | – | – | – | – | – | – | – | – |
| Cc1cccc(Cc2ncc(Cl)cn2)c1Oc1ccc(F)cc1 [Example 1-31] | – | – | 90% | 90% | 100% | 90% | 100% | 90% | 100% | 100% | 90% | 100% | 90% | 100% | – | – | – | – | – |
| N#CC(c1ncc(F)cn1)c1ccccc1Cc1ccc(F)cc1 (centres unmarked) [Example 1-81] | – | – | – | – | – | – | 90% | – | 100% | 90% | 90% | – | 90% | – | – | – | – | – | – |
| Fc1ccc(Oc2ccccc2Cc2ncc(Br)cn2)cc1 [Example 1-87] | – | – | 90% | 100% | 100% | 90% | 90% | 100% | – | 100% | 100% | 100% | 100% | 90% | 100% | – | – | – | – |
| Fc1ccc(Cc2ccccc2Cc2ncc(F)cn2)cc1 [Example 1-95] | – | – | 90% | 100% | 90% | 100% | – | 100% | 90% | 100% | 100% | – | 90% | 90% | 100% | 100% | 100% | 90% | 100% |
| Fc1ccc(Cc2ccccc2Cc2ccc(Cl)cn2)cc1 [Example 1-96] | – | – | – | 90% | 100% | 90% | 90% | 100% | – | 100% | 100% | 90% | 100% | 90% | 90% | – | – | – | 100% |
| Fc1cc(Cl)cnc1Oc1ccccc1Cc1ccc(Cl)cn1 [Example 1-101] | – | – | – | 100% | 100% | 90% | 90% | 100% | 100% | 90% | 100% | 100% | 100% | 100% | – | 100% | – | – | 90% |
| Fc1ccc(Sc2ccccc2Cc2ncc(Cl)cc2F)cc1 [Example 1-106] | – | – | – | 100% | – | 100% | 90% | 90% | – | 90% | 100% | – | 100% | – | 90% | – | – | – | – |
| Fc1cccc(Cc2ncc(Cl)cn2)c1Oc1ncc(Cl)cn1 [Example 1-151] | 80% | 80% | – | – | – | – | – | – | – | – | – | – | – | – | – | – | – | – | – |
| Fc1cnc(Cc2cccc(F)c2Oc2ncc(F)cn2)nc1 [Example 1-153] | 100% | 90% | – | – | – | – | – | – | – | – | – | – | – | – | – | – | – | – | – |
| Cc1nc(-c2ccccc2Cc2ncc(Cl)cn2)no1 [Example 1-159] | 90% | 80% | – | – | – | – | – | – | – | – | – | – | – | – | – | – | – | – | – |
| FC(F)c1nc(-c2ccccc2Cc2ncc(Cl)cn2)no1 [Example 1-160] | 100% | 100% | – | – | – | – | – | – | – | – | – | – | – | – | – | – | – | – | – |
